Assay results from patent US20080287398A1, “COLD MENTHOL RECEPTOR-1 ANTAGONISTS” (priority 2007, published 2008).

Key:
rat TRPM8 = target: T1, rat TRPM8 (Rattus norvegicus, UniProt Q8R455); test: In vitro rat TRPM8 functional assay (Ca2+ dye, FDSS, 100 nM icilin); format: cell-based; conditions: HEK293 cells transiently transfected with rat TRPM8, read-out: rTRPM8 IC50
T1 construct: the full-length cDNAs encoding human and rat TRPM8 were subcloned; expressed in transfected cells; host or cells: HEK293 (transient, FuGENE 6, pCI-NEO vector)
Protocol: For functional expression of TRPM8, the full-length cDNAs encoding human and rat TRPM8 were subcloned into pCl-NEO mammalian expression vectors. The expression constructs were transiently transfected into HEK293 cells according to the FuGENE 6 transfection reagent® (ROCHE) instructions. HEK293 cells were routinely grown as monolayers in Dulbecco's minimum essential medium supplemented with 10% FBS, 1 mM L-glutamine, 100 units/mL penicillin and 100 ug/mL streptomycin. Cells were maintained in 5% CO2 at 37° C. […] Following incubation, plates were inserted into a FDSS instrument, where cells were challenged with a compound of Formula (I) (at varying concentrations) and intracellular Ca^2+ was measured for 5 min prior to the addition of 100 nM icilin. IC50 values for compounds of the present invention were determined from eight-point dose-response studies
Maximal fluorescence intensity (FI) achieved upon addition of icilin was exported from the FDSS and further analyzed using GraphPad Prism 3.02 (Graph Pad Software Inc., CA, U.S.A.). […] The dose response curves from the average of quadruplicate wells for each data point were analyzed by using nonlinear regression of either sigmoidal dose response or sigmoidal dose response (variable slope). Finally, the IC50 values were calculated with the best-fit dose curve determined by Prism.

rats = test: Reversal of icilin-induced behaviors (wet-dog shakes) in rats; format: in vivo; conditions: rat, 1 h post-icilin
Protocol: In this paradigm, icilin-induced shaking was counted for 10 minutes followed by administration of a compound of Formula (I). The diminution of shaking behavior is represented as a percent inhibition relative to icilin-induced shakes in the absence of test compound administration, as described by the following formula: % Inhibition=[1−(WDS count following test compound dose/WDS count prior to test compound dose)]×100.

canine TRPM8 [1] = target: T2, canine TRPM8 (Canis lupus familiaris, UniProt Q1A7N1); test: In vitro canine TRPM8 functional assay (Ca2+-sensitive dye, FLIPR/FDSS, icilin activation); format: cell-based; conditions: HEK293 cells expressing canine TRPM8, icilin activation; for inhibition at 0.5 µM: HEK293, 0.5 μM compound, read-out: % I (0.5 μM); for IC50: eight-point dose-response, read-out: IC50
T2 construct: expressed in transfected cells
Procedure, shortened: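 Icilin challenge (final concentration producing ~80% of maximal response) followed a 5 min compound exposure in canine TRPM8-HEK293 cells dye-loaded with Calcium 3. Intracellular Ca2+ was read on FLIPR/FDSS. EC50 and IC50 values came from nonlinear sigmoidal dose-response fits of basal-subtracted, percent-of-maximum data averaged over quadruplicates.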

canine TRPM8 [2] = target: T2, canine TRPM8; test: TRPM8 patch clamp assay (whole-cell, HEK293 cells); format: cell-based
Protocol: For patch clamp experiments, HEK293 cells stably transfected with canine TRPM8 were cultured in DMEM supplemented with 10% fetal bovine serum, 100 units/ml penicillin, 100 μg/ml streptomycin and 1 mg/ml G418. Cells were maintained at 37° C. and in 5% CO2.
The extracellular solution contained (in mM): NaCl, 132; EGTA, 1; KCl, 5.4; MgCl2, 0.8; HEPES, 10; glucose, 10; pH=7.4. Recordings were performed using the conventional whole-cell patch clamp technique, 1-2 days after plating cells onto glass coverslips at densities appropriate for single cell recording. Currents were amplified by a patch clamp amplifier and filtered at 2 kHz (Axopatch 200B, Molecular Devices, Union City, Calif.). Menthol (100 μM) was applied to the cell at 0.5 ml/min via a gravity-fed perfusion system. Recordings involving menthol activation were performed at 22° C.
In experiments where temperatures were varied, temperature ramps were generated by cooling the perfusate in an in-line cooler (Model SC-20, Warner Instruments, Hamden, Conn.) controlled by a temperature controller (Model CL-100, Warner Instruments). The temperature in the vicinity of the recorded cell was measured with a custom-made miniature thermo-microprobe connected to a monitoring thermometer (Model TH-8, Physitemp, Clifton, N.J.), and sampled using Digidata 1322A and pClamp 9.0 (Molecular Devices), as were the currents concurrently measured in the whole-cell patch clamp mode. The current was continuously sampled (at 100 Hz) at a holding potential of −60 mV.
Compounds were diluted from 10 mM DMSO stocks (stored at −20° C.) into an extracellular solution either containing 100 μM menthol or subjecting to cooling. Increasing concentrations of a compound were applied to a cell in a cumulative manner and concentration-dependent responses were measured after steady-state activation was achieved by either 100 μM menthol or cooling to 10° C. A saturating concentration of a reference antagonist was applied at the end of an experiment (either in the presence of 100 μM menthol or 10° C. temperature) to establish the baseline from which all the other measurements were subtracted.
Percentage inhibition by a compound was calculated as follows: 100×(1−Icomp/I0); where Icomp and I0 are steady-state current amplitudes in either the presence or absence of a concentration of the compound.

[3] = IC50, mode of activation Menthol (100 μM), HEK293 cells stably transfected with canine TRPM8, 100 μM menthol, 22° C.

T2 sequence (Q1A7N1 1-1104): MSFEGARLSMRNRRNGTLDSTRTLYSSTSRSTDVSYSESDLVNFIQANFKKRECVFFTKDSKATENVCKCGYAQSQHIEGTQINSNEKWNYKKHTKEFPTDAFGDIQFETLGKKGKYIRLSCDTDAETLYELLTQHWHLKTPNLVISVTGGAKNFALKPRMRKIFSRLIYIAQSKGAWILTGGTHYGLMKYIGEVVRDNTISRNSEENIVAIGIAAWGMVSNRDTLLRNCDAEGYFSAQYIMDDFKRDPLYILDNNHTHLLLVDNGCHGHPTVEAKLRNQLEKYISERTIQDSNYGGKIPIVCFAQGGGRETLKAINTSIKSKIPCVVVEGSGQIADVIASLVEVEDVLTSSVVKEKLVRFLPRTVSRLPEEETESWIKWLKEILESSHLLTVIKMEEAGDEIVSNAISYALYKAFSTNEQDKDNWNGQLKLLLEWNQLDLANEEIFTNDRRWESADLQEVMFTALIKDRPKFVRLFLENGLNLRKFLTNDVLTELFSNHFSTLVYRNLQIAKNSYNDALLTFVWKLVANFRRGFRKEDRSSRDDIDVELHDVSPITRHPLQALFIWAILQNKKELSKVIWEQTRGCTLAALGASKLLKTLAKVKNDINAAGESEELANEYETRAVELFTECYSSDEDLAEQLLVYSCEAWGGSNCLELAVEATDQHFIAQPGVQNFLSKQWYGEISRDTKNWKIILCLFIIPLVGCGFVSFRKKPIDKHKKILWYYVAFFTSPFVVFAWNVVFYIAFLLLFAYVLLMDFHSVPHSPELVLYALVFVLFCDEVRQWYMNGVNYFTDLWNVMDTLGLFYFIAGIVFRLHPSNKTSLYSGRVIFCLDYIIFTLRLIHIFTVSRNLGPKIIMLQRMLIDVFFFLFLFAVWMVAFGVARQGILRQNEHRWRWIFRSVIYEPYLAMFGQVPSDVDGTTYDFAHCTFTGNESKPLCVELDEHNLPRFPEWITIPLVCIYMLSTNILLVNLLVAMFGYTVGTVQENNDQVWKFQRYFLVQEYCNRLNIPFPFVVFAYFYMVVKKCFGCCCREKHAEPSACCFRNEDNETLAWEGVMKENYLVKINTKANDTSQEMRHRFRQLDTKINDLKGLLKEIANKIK
T1 sequence (Q8R455 whole entry): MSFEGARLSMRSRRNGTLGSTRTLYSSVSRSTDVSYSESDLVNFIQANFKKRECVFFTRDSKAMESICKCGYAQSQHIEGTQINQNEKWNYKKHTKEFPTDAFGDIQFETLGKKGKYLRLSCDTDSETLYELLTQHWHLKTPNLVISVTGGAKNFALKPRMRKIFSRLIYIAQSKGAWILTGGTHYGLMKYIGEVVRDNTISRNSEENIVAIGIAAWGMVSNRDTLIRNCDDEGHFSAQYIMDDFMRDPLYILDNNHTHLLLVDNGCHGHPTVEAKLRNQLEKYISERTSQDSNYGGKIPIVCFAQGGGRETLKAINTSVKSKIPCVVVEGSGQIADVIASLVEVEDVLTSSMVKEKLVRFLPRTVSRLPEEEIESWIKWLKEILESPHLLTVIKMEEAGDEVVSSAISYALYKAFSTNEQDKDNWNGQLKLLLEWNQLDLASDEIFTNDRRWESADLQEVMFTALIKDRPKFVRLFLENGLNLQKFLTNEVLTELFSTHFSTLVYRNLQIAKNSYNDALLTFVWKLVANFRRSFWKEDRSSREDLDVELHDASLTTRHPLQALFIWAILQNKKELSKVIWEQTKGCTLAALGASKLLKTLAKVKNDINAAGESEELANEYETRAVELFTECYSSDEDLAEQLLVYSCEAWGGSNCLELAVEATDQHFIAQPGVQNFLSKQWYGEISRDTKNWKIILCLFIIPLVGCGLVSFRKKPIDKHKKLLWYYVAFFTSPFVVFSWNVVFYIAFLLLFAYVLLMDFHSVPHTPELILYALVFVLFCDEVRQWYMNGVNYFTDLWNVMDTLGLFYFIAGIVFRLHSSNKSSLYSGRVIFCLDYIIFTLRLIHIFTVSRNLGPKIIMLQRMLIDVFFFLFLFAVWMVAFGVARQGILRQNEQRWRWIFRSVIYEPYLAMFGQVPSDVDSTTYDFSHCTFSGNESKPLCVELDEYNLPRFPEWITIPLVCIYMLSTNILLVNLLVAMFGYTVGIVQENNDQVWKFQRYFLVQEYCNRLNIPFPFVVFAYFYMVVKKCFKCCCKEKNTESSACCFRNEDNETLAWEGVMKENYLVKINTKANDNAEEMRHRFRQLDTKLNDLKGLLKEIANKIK

SMILES | IC50 (rat TRPM8) | % Inhibition (rats; 30 mg/kg p.o.) | inhibition at 0.5 µM (canine TRPM8 [1]) | IC50 (canine TRPM8 [1]) | IC50 (canine TRPM8 [2]; [3]) | ED50 (rats; po) | % Inhibition (rats; 10 mg/kg p.o.) | % Inhibition (rats; 100 mg/kg p.o.) | IC50 (canine TRPM8 [2]; IC50, mode of activation Cold (10° C.), HEK293 cells stably transfected with canine TRPM8, cooling to 10° C.)
CC(C)OP(=O)(OC(C)C)[C@@H](Cc1ccc(F)c(C(F)(F)F)c1)c1sc2ccccc2c1Br [Cpd 242, (S)-[1-(3-Bromo-benzo[b]thiophen-2-yl)-2-(4-fluoro-3-trifluoromethyl-phenyl)-ethyl]-phosphonic acid diisopropyl ester] | 0.056 nM | 79.9% | 103% | 9 nM | 0.4 nM |  |  |  | 
CC(C)OP(=O)(OC(C)C)[C@@H](Cc1ccc(F)c(F)c1)c1sc2ccccc2c1Br [Cpd 234, (S)-[1-(3-Bromo-benzo[b]thiophen-2-yl)-2-(3,4-difluoro-phenyl)-ethyl]-phosphonic acid diisopropyl ester] | 0.053 nM | 56.1% | 104% | 29 nM | 4.7 nM | 28.5 mg/kg | 24.4% | 75.1% | 1.6 nM
